Molecular target: Cannabinoid receptor 2 (Homo sapiens) (UniProt P34972)
Test: Binding affinity to CB2 receptor

Chain of Cannabinoid receptor 2 (Homo sapiens) (P34972 whole entry, looked up): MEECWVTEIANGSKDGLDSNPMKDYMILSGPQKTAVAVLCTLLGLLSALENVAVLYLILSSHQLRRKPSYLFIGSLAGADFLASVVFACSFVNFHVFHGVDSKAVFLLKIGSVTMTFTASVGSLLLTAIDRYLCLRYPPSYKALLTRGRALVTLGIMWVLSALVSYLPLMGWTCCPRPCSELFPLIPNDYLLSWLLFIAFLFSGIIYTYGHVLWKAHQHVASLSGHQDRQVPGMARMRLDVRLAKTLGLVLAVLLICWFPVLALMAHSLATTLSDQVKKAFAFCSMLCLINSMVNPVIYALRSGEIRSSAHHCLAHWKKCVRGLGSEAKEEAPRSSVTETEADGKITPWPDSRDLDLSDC

SMILES	Ki [nM]
C[C@H](NS(=O)(=O)C(F)(F)F)c1ccc(S(=O)(=O)c2ccc(Cl)cc2S(=O)(=O)c2c(N)cccc2F)cc1	4.1
C[C@H](NCCC(F)(F)F)c1ccc(S(=O)(=O)c2ccc(Cl)cc2S(=O)(=O)c2ccccc2F)cc1	17
C[C@H](NS(C)(=O)=O)c1ccc(S(=O)(=O)c2ccc(Cl)cc2S(=O)(=O)c2ccccn2)cc1	2.9
C[C@H](NS(C)(=O)=O)c1ccc(S(=O)(=O)c2ccc(Cl)cc2S(=O)(=O)c2cccc[n+]2[O-])cc1	119
C[C@H](NS(=O)(=O)C(F)(F)F)c1ccc(S(=O)(=O)c2ccc(C(F)(F)F)cc2S(=O)(=O)c2ccccc2F)cc1	2.5
C[C@H](NCC(F)(F)F)c1ccc(S(=O)(=O)c2ccc(Cl)cc2S(=O)(=O)c2ccccc2F)cc1	7
C[C@H](NS(=O)(=O)C(F)(F)F)c1ccc(S(=O)(=O)c2ccccc2S(=O)(=O)c2ccccc2F)cc1	25
C[C@H](NS(=O)(=O)C(F)(F)F)c1ccc(S(=O)(=O)c2ccc(O)cc2S(=O)(=O)c2ccccc2F)cc1	1.3
CNS(=O)(=O)c1cc(Cl)ccc1S(=O)(=O)c1ccc([C@H](C)NS(C)(=O)=O)cc1	1250
C[C@H](N)c1ccc(S(=O)(=O)c2ccc(Cl)cc2S(=O)(=O)c2ccccc2F)cc1	3950
C[C@H](NS(=O)(=O)C(F)(F)F)c1ccc(S(=O)(=O)c2ccc(Cl)cc2S(=O)(=O)c2c(F)cccc2N2CCOCC2)cc1	140
C[C@H](NS(=O)(=O)C(F)(F)F)c1ccc(S(=O)(=O)c2ccc(OC(F)(F)F)cc2S(=O)(=O)c2ccccc2F)cc1	5
C[C@H](NS(C)(=O)=O)c1ccc(S(=O)(=O)c2ccc(Cl)cc2S(=O)(=O)c2ccccc2F)cc1	1.3
CCCS(=O)(=O)c1cc(Cl)ccc1S(=O)(=O)c1ccc([C@H](C)NS(C)(=O)=O)cc1	308
C[C@H](NS(C)(=O)=O)c1ccc(S(=O)(=O)c2ccc(Cl)cc2S(=O)(=O)c2cccc3cccnc23)cc1	204
CNc1cccc(F)c1S(=O)(=O)c1cc(Cl)ccc1S(=O)(=O)c1ccc([C@H](C)NS(=O)(=O)C(F)(F)F)cc1	22
C[C@H](NC(=O)C(F)(F)F)c1ccc(S(=O)(=O)c2ccc(Cl)cc2S(=O)(=O)c2ccccc2F)cc1	3.7
C[C@H](NS(=O)(=O)C(F)(F)F)c1ccc(S(=O)(=O)c2ccc(N3CCNCC3)cc2S(=O)(=O)c2ccccc2F)cc1	1100
C[C@H](NS(=O)(=O)C(F)(F)F)c1ccc(S(=O)(=O)c2ccc(N)cc2S(=O)(=O)c2ccccc2F)cc1	10
C[C@H](NS(C)(=O)=O)c1ccc(S(=O)(=O)c2ccc(Cl)cc2S(=O)(=O)N(C)C)cc1	1270

— ChEMBL document CHEMBL1139959, “Optimization of triaryl bis-sulfones as cannabinoid-2 receptor ligands” (Bioorg Med Chem Lett, 2007)
